Measured values from ChEMBL document CHEMBL1130556, “Synthesis and activity of brefeldin a analogs as inducers of cancer cell differentiation and apoptosis” (Bioorg Med Chem Lett, 1997).

Key:
Type in all cases: functional, cell-based
Details in all cases: Homo sapiens
HCT-116 [1] = assay: Effect on apoptotic DNA fragmentation to differentitiate HCT 116 cells, at a concentration of 4.1 uM, 1.2 ug/ml was determined; + = Potent
HCT-116 [2] = assay: Effect on apoptotic DNA fragmentation to differentitiate HCT 116 cells, at a concentration of 3.2 uM, 1.0 ug/ml was determined; - = Not potent
HCT-116 [3] = assay: Effect on apoptotic DNA fragmentation to differentitiate HCT 116 cells, at a concentration of 3.6 uM, 1.0 ug/ml was determined; - = Non potent
HCT-116 [4] = assay: Effect on apoptotic DNA fragmentation to differentitiate HCT 116 cells, at a concentration of 0.11 uM, 0.03 ug/ml was determined; + = Potent
HCT-116 [5] = assay: Effect on apoptotic DNA fragmentation to differentitiate HCT 116 cells, at a concentration of 6.4 uM, 2.0 ug/ml was determined; - = Not potent
HCT-116 [6] = assay: Effect on apoptotic DNA fragmentation to differentitiate HCT 116 cells, at a concentration of 3.5 uM, 1.0 ug/ml was determined; - = Not potent
HCT-116 [7] = assay: Effect on apoptotic DNA fragmentation to differentitiate HCT 116 cells, at a concentration of 1.6 uM, 0.5 ug/ml was determined; + = Potent
HCT-116 [8] = assay: Effect on apoptotic DNA fragmentation to differentitiate HCT 116 cells, at a concentration of 0.16 uM, […] was determined; + = Potent
HCT-116 [9] = assay: Effect on apoptotic DNA fragmentation to differentitiate HCT 116 cells, at a concentration of 0.85 uM, 0.25 ug/ml was determined; - = Not potent
HCT-116 [10] = assay: Effect on apoptotic DNA fragmentation to differentitiate HCT 116 cells, at a concentration of 3.4 uM, 1.0 ug/ml was determined; - = Not potent
HCT-116 [11] = assay: Effect on apoptotic DNA fragmentation to differentitiate HCT 116 cells, at a concentration of 5.2 uM, 2.0 ug/ml was determined; - = Not potent
HCT-116 [12] = assay: Effect on apoptotic DNA fragmentation to differentitiate HCT 116 cells, at a concentration of 0.27 uM, 0.1 ug/ml was determined; + = Potent

## C[C@H]1CCC[C@@H]2O[C@@H]2[C@@H]2C[C@H](O)C[C@H]2[C@H](O)/C=C/C(=O)O1
HCT-116 [1]
  DNA fragmentation: Potent

## CO[C@@H]1C[C@@H]2[C@H](/C=C\CCC[C@H](C)OC(=O)/C=C/[C@H]2OC)C1
HCT-116 [2]
  DNA fragmentation: Not potent

## C[C@H]1CCC/C=C\[C@@H]2CC(=O)C[C@H]2C(=O)CCC(=O)O1
HCT-116 [3]
  DNA fragmentation: Non potent

## C[C@H]1CCC/C=C\[C@@H]2C[C@H](O)C[C@H]2[C@H](O)/C=C/C(=O)O1
HCT-116 [4]
  DNA fragmentation: Potent

## C[C@H]1CCC/C=C\[C@@H]2CC(=O)C[C@H]2[C@H](O)/C=C/C(=O)O1
HCT-116 [3]
  DNA fragmentation: Non potent

## COC(=O)/C=C/[C@@H](O)[C@@H]1C[C@@H](O)C[C@H]1/C=C\CCC[C@@H](C)O
HCT-116 [5]
  DNA fragmentation: Not potent

## C[C@H]1CCCCC[C@@H]2C[C@H](O)C[C@H]2[C@H](O)CCC(=O)O1
HCT-116 [6]
  DNA fragmentation: Not potent

## CC(=O)O[C@@H]1/C=C/C(=O)O[C@@H](C)CCC/C=C\[C@@H]2C[C@H](O)C[C@H]21
HCT-116 [7]
  DNA fragmentation: Potent

## CC(=O)O[C@@H]1C[C@H]2[C@H](O)/C=C/C(=O)O[C@@H](C)CCC/C=C\[C@@H]2C1
HCT-116 [8]
  DNA fragmentation: Potent

## CO[C@@H]1/C=C/C(=O)O[C@@H](C)CCC/C=C\[C@@H]2C[C@H](O)C[C@H]21
HCT-116 [9]
  DNA fragmentation: Not potent

## C[C@@H](O)CCC/C=C\[C@@H]1C[C@H](O)C[C@H]1[C@H](O)/C=C/C(=O)O
HCT-116 [10]
  DNA fragmentation: Not potent

## C[C@@H](O)CCC/C=C\[C@@H]1C[C@H](O)C[C@H]1[C@H](O)/C=C/C(=O)OCc1ccccc1
HCT-116 [11]
  DNA fragmentation: Not potent

## CC(=O)O[C@@H]1C[C@@H]2[C@H](/C=C\CCC[C@H](C)OC(=O)/C=C/[C@H]2OC(C)=O)C1
HCT-116 [12]
  DNA fragmentation: Potent
